The source of these data is patent US11214803B2, “Modulators of YAP1 expression” (Ionis Pharmaceuticals, Inc., priority 2019, dated 2022).

Strand notation (5' to 3'): a small letter for the sugar, then the base; units joined by * are phosphorothioate-linked, units joined directly phosphodiester-linked; [ ] holds rarer units or linkages, { } end groups; capitals alone tell only the bases. e = 2'-O-(2-methoxyethyl) (MOE); k = constrained ethyl (cEt); [5mC] = 5-methylcytosine; d = 2'-deoxy (DNA); m = 2'-O-methyl

The first series deals with Yap1 mRNA. Description: Antisense inhibition of human Yap1 in SNU-449 cells by modified oligonucleotides, single dose (Example 5, RTS36584). As to conditions: Table 40 (separate experiment); SNU-449 cells, 10,000 cells per well, free uptake, 2,000 nM oligonucleotide, approx. 48 hours; RTS36584; normalized to RIBOGREEN; Yap1 mRNA relative to untreated control. The format is cell-based. A digest of the protocol: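 Values are Yap1 mRNA as percent of untreated control cells, measured by quantitative real-time RT-PCR using RTS36584 and normalised to total RNA by RIBOGREEN. Cells were SNU-449, dosed by free uptake at 2,000 nM for approximately 48 hours.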
In the case of “1198731 (kT*e[5mC]*kT*dA*dT*dA*dT*dT*dA*dG*dA*dG*eT*eA*kT*kG; antisense) [Compound 1198731]”, the “YAP1 (% UTC)” value is recorded as 59 % UTC.

Turning to “1198715 (kA*eT*kT*dG*dT*d[5mC]*dT*d[5mC]*dA*dT*dG*d[5mC]*e[5mC]*eT*kT*kA; antisense) [Compound 1198715]”, the “YAP1 (% UTC)” value turned out to be 33 % UTC.

The same series, now with this note: Table 41; SNU-449 cells, 10,000 cells per well, free uptake, 2,000 nM modified oligonucleotide, approximately 48 hours; RTS36584; normalized to RIBOGREEN; Yap1 mRNA relative to untreated control cells.
Consider “1198794 (antisense kA*eA*k[5mC]*dT*dT*dT*dA*dA*dA*dG*dT*dG*eT*eA*kT*kG) [Compound 1198794]”, for which the “YAP1 (% UTC)” value amounted to 74 % UTC.

Take “1198786 (antisense kT*eG*kT*dA*dT*dG*dT*d[5mC]*dA*dG*dA*dA*eG*eA*kG*kT) [Compound 1198786]”: the “YAP1 (% UTC)” value amounted to 16 % UTC.

Staying with this series, now noted: Table 42 (separate experiment); SNU-449 cells, 10,000 cells per well, free uptake, 2,000 nM modified oligonucleotide, approximately 48 hours; RTS36584; normalized to RIBOGREEN; Yap1 mRNA relative to untreated control cells.
For “1198200 (kA*kA*dT*dT*dG*dT*d[5mC]*dT*d[5mC]*dA*dT*eG*e[5mC]*e[5mC]*kT*kT; antisense) [Compound 1198200]”, the “YAP1 (% UTC)” value is recorded as 49 % UTC.

As for “1198213 (kA*kT*dA*dT*dT*dA*dG*dA*dG*dT*dA*eT*eG*eT*kG*kG; antisense) [Compound 1198213]”, the “YAP1 (% UTC)” value is 16 % UTC.

With “1198694 (antisense kT*kA*dT*dG*dT*dA*dA*dT*dA*dT*dT*dG*k[5mC]*eA*kA*eT) [Compound 1198694]”, the “YAP1 (% UTC)” value was determined as 110 % UTC.

On to “1198215 (kT*k[5mC]*dT*dA*dT*dA*dT*dT*dA*dG*dA*eG*eT*eA*kT*kG; antisense) [Compound 1198215]”, for which the “YAP1 (% UTC)” value is reported as 120 % UTC.

As for “1198234 (kG*k[5mC]*dT*dT*dT*dG*dG*dA*dA*dG*dA*eT*e[5mC]*eT*kG*kA) [Compound 1198234]”, the “YAP1 (% UTC)” value is on record as 45 % UTC.

Staying with this series, now noted: Table 44 experiment; SNU-449 cells, 10,000 cells per well, free uptake, 2,000 nM, approximately 48 hours; RTS36584; Yap1 mRNA normalized to RIBOGREEN, relative to untreated control cells.
As to “1198526 (kA*kA*dG*dT*dG*dT*dA*dT*dG*dT*d[5mC]*eA*kG*eA*kA*eG; antisense) [Compound 1198526]”, the “YAP1 (% UTC)” value amounted to 2 % UTC.

As for “1198537 (k[5mC]*kT*dA*dA*dG*dT*dA*dA*dG*dG*dT*eT*kT*e[5mC]*k[5mC]*e[5mC]; antisense) [Compound 1198537]”, the “YAP1 (% UTC)” value worked out at 24 % UTC.

For “1198509 (kT*k[5mC]*dT*dT*dA*dT*dA*dT*dG*dG*dT*eT*kT*eT*kG*eT; antisense) [Compound 1198509]”, the “YAP1 (% UTC)” value is given as 20 % UTC.

Still in this series, the particulars now being: Table 45; Yap1 mRNA as percent of untreated control, SNU-449 cells, single dose.
With “1198926 (kG*k[5mC]*dT*dT*dT*dG*dG*dA*dA*dG*dA*kT*d[5mC]*kT*dG*kA; antisense) [Compound 1198926]”, the “YAP1 (% UTC)” value turned out to be 45 % UTC.

Take “1198950 (kA*kT*dA*dT*dT*dG*d[5mC]*dA*dA*dT*d[5mC]*kT*dG*kT*d[5mC]*kT; antisense) [Compound 1198950]”: the “YAP1 (% UTC)” value is 85 % UTC.

Staying with this series, now noted: Table 46; Yap1 mRNA as percent of untreated control, SNU-449 cells, single dose.
“1198871 (kT*kT*dT*dA*dT*dG*dT*dA*dA*dT*dA*kT*eT*kG*e[5mC]*kA; antisense) [Compound 1198871]”: the “YAP1 (% UT)” value was 77 % UT.

For “1198821 (kT*k[5mC]*dT*dA*dT*dA*dT*dT*dA*dG*dA*kG*eT*kA*eT*kG; antisense) [Compound 1198821]”, the “YAP1 (% UT)” value came out at 62 % UT.

Consider “1198852 (kT*k[5mC]*dA*dG*dA*dT*dT*dT*dA*dG*dG*kA*eT*kG*e[5mC]*kA; antisense) [Compound 1198852]”, for which the “YAP1 (% UT)” value stood at 41 % UT.

Take “1198804 (antisense kT*kG*dT*d[5mC]*dT*d[5mC]*dA*dT*dG*d[5mC]*d[5mC]*kT*eT*kA*eT*kA) [Compound 1198804]”: the “YAP1 (% UT)” value is on record as 22 % UT.

“1198845 (kA*kG*dG*dA*dT*dG*d[5mC]*dA*dT*dG*dG*kT*eT*kT*eT*kT; antisense) [Compound 1198845]”: the “YAP1 (% UT)” value amounted to 43 % UT.

On to “1198836 (kG*kG*dA*dA*dG*dA*dT*d[5mC]*dT*dG*dA*kA*eA*k[5mC]*eT*k[5mC]; antisense) [Compound 1198836]”, for which the “YAP1 (% UT)” value is listed as 43 % UT.

Staying with this series, now noted: Table 48; Yap1 mRNA level relative to untreated control; modified oligonucleotides targeting SEQ ID NO.: 1 and 2.
For “1198295 (kT*kA*kG*dA*dG*dT*dA*dT*dG*dT*dG*dG*k[5mC]*eA*kA*eT; antisense) [Compound 1198295]”, the “YAP1 (% UT)” value came to 15 % UT.

On to “1198344 (kA*kT*kA*dT*dT*dG*d[5mC]*dA*dA*dT*d[5mC]*dT*kG*eT*k[5mC]*eT; antisense) [Compound 1198344]”, for which the “YAP1 (% UT)” value stood at 55 % UT.

Consider “1198327 (kT*kT*kT*dA*dG*dG*dA*dT*dG*d[5mC]*dA*dT*kG*eG*kT*eT; antisense) [Compound 1198327]”, for which the “YAP1 (% UT)” value was 29 % UT.

The same series, now with this note: Table 49; Yap1 mRNA level relative to untreated control; modified oligonucleotides targeting SEQ ID NO.: 1 and 2.
For the substance “1198367 (kG*kA*k[5mC]*dT*dA*dA*dG*dT*dA*dA*dG*dG*kT*eT*kT*e[5mC]; antisense) [Compound 1198367]”, the “YAP1 (% UT)” value worked out at 58 % UT.

For “1198568 (antisense kA*k[5mC]*kT*dT*dT*dT*dA*d[5mC]*dA*dT*dT*dA*kG*kG*kA*eA) [Compound 1198568]”, the “YAP1 (% UT)” value is given as 31 % UT.

Turning to “1198544 (antisense kA*kA*kT*dT*dG*dT*d[5mC]*dT*d[5mC]*dA*dT*dG*k[5mC]*k[5mC]*kT*eT) [Compound 1198544]”, the “YAP1 (% UT)” value turned out to be 21 % UT.

On to “1198582 (antisense kA*kT*kA*dG*dT*dG*d[5mC]*dT*dT*dT*dG*dG*kA*kA*kG*eA) [Compound 1198582]”, for which the “YAP1 (% UT)” value was found to be 63 % UT.

For the substance “1095547 (antisense kA*k[5mC]*kT*dG*dA*dG*dG*dT*dA*dT*dA*dA*k[5mC]*eT*kG*eG) [Compound 1095547]”, the “YAP1 (% UT)” value is on record as 42 % UT.

“1198336 (k[5mC]*kT*kT*dA*dT*dA*dT*dG*dG*dT*dT*dT*kT*eG*kT*eG; antisense) [Compound 1198336]”: the “YAP1 (% UT)” value came out at 31 % UT.

The series is the same for the next values; noted with them: Table 50; Yap1 mRNA remaining as percent of untreated control (UT), SNU-449 cells, single dose.
“1198610 (antisense kT*kG*kT*dA*dT*dG*dT*d[5mC]*dA*dG*dA*dA*kG*kA*kG*eT) [Compound 1198610]”: the “YAP1 (% UT)” value was “TksGksTksAdsTdsGdsTds^mCdsAdsGds4 % UT”.

In the case of “1198590 (antisense kT*k[5mC]*kA*dG*dA*dT*dT*dT*dA*dG*dG*dA*kT*kG*k[5mC]*eA) [Compound 1198590]”, the “YAP1 (% UT)” value is recorded as 46 % UT.

“1198563 (antisense kG*kA*kG*dG*dT*dA*dT*dA*dA*d[5mC]*dT*dG*kG*kG*k[5mC]*eA) [Compound 1198563]”: the “YAP1 (% UT)” value is listed as 53 % UT.

As to “1095435 (antisense kA*k[5mC]*kT*dG*dA*dG*dG*dT*dA*dT*dA*dA*k[5mC]*kT*kG*eG) [Compound 1095435]”, the “YAP1 (% UT)” value is 39 % UT.

The same series, now with this note: Table 51; Yap1 mRNA remaining as percent of untreated control (UT), SNU-449 cells, single dose.
As for “1197278 (kG*kA*k[5mC]*dT*mA*dA*dG*dT*dA*dA*dG*dG*dT*kT*kT*k[5mC]) [Compound 1197278]”, the “YAP1 (% UT)” value stood at 36 % UT.

Consider “1197297 (GTGCUTTGGAAGATCT; cEt/MOE gapmer, phosphorothioate, 5-methylcytosine, chemistry not fully specified) [Compound 1197297]”, for which the “YAP1 (% UT)” value is 25 % UT.

As for “1197272 (^{m}C_{ks}T_{ks}T_{ks}T_{ds}A_{ys}A_{ds}A_{ds}G_{ds}T_{ds}G_{ds}T_{ds}A_{ds}T_{ds}G_{ks}T_{ks}^{m}C_{k}; as printed in the source, key not given here) [Compound 1197272]”, the “YAP1 (% UT)” value is reported as 32 % UT.

Take “1197263 (kG*kA*k[5mC]*dA*mA*d[5mC]*dT*d[5mC]*dT*dT*dA*dT*dA*kT*kG*kG) [Compound 1197263]”: the “YAP1 (% UT)” value is 91 % UT.

Still in this series, the particulars now being: Table 52; Yap1 mRNA, modified oligonucleotides targeting SEQ ID NO: 1 and 2.
Take “1200813 (k[5mC]*kT*kT*dT*dT*mA*d[5mC]*dA*dT*dT*dA*dG*dG*kA*kA*k[5mC]; antisense) [Compound 1200813]”: the “YAP1 (% UT)” value was 58 % UT.

For the substance “1200868 (kT*kA*kA*dG*dT*mA*dA*dG*dG*dT*dT*dT*d[5mC]*k[5mC]*k[5mC]*kA; antisense) [Compound 1200868]”, the “YAP1 (% UT)” value is given as 36 % UT.

Regarding “1200818 (kA*kA*kG*d[5mC]*dA*mC*dT*dT*dT*dT*dA*d[5mC]*dA*kT*kT*kA; antisense) [Compound 1200818]”, the “YAP1 (% UT)” value was determined as 31 % UT.

Staying with this series, now noted: Yap1 mRNA, percent of untreated control; modified oligonucleotides targeting SEQ ID NO: 1 and 2; Table 47.
In the case of “1009325 (kA*kG*kA*dG*dT*dA*dT*dG*dT*dG*dG*d[5mC]*dA*kA*kT*kA; antisense) [Compound 1009325]”, the “YAP1 (% UT)” value was determined as 16 % UT.

On to “1009326 (kT*kA*kT*dT*dA*dG*dA*dG*dT*dA*dT*dG*dT*kG*kG*k[5mC]; antisense) [Compound 1009326]”, for which the “YAP1 (% UT)” value came out at 10 % UT.

“1198877 (kT*kT*dA*dA*dA*dG*dT*dG*dT*dA*dT*kG*eT*k[5mC]*eA*kG; antisense) [Compound 1198877]”: the “YAP1 (% UT)” value is on record as 11 % UT.

As for “1198862 (kG*kA*d[5mC]*dA*dA*d[5mC]*dT*d[5mC]*dT*dT*dA*kT*eA*kT*eG*kG; antisense) [Compound 1198862]”, the “YAP1 (% UT)” value is reported as 72 % UT.

Take “1198878 (kT*kT*dT*dA*dA*dA*dG*dT*dG*dT*dA*kT*eG*kT*e[5mC]*kA; antisense) [Compound 1198878]”: the “YAP1 (% UT)” value is given as 42 % UT.
